Assay [1] deals with T1, MAO-A (Rattus norvegicus, UniProt P21396).
T1 construct: The MAO enzyme source was a homogenate of rat brain in 0.3 M sucrose 1:20 w/v; from tissue; host or cells: rat brain homogenate
T1 sequence (P21396 1-526): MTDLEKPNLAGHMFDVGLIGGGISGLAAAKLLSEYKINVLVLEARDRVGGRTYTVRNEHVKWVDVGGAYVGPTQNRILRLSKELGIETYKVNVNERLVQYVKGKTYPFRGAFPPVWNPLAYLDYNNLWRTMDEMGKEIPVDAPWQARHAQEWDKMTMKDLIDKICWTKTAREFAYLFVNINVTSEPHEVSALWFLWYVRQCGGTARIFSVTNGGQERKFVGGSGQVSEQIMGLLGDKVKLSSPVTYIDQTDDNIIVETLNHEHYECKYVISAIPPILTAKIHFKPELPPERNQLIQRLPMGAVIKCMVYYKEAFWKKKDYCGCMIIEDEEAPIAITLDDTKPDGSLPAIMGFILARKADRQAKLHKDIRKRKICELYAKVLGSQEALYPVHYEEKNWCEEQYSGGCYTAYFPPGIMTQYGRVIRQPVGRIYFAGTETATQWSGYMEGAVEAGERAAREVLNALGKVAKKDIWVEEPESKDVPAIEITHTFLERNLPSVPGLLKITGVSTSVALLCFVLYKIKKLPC
As to the kind of experiment: Inhibition of MAO activity in vitro (5-HT as substrate). The class given is biochemical. How it is done: (§1) Inhibition of MAO Activity In Vitro Experimental Protocol
(§2) The reaction was then stopped by addition of citric acid. Radioactivity indicates the production of 5-HT and PEA metabolites formed as a result of MAO activity.
(§3) A mixture of toluene: ethyl acetate (1:1) was added to the reaction and mixed for 10 minutes, followed by 5 minutes of centrifugation at 1760 g. The upper phase was taken for radioactive determination by liquid scintillation spectrometry.

In assay [2] the target is T2, MAO-B (Rattus norvegicus, UniProt P19643).
T2 construct: The MAO enzyme source was a homogenate of rat brain in 0.3 M sucrose 1:20 w/v; from tissue; host or cells: rat brain homogenate
T2 sequence (P19643 1-520): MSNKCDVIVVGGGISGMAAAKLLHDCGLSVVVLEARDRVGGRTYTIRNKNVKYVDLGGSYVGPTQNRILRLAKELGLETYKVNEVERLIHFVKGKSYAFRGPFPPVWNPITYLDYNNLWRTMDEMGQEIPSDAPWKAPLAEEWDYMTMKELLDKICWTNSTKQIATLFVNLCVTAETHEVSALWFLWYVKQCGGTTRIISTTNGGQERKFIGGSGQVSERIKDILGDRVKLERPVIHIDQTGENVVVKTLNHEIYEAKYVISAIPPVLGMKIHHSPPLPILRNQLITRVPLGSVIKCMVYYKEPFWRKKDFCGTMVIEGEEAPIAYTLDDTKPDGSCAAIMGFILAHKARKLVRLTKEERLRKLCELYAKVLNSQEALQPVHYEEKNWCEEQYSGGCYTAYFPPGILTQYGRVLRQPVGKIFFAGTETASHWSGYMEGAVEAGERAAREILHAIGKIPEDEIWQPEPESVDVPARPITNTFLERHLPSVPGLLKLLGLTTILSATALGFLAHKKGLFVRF
As to the kind of experiment: Inhibition of MAO activity in vitro (PEA as substrate). The class given is biochemical. How it is done: as §1, §2, §3

Assay [3] concerns the target T1, MAO-A. As to the kind of experiment: Inhibition of MAO activity in vivo, MAO-A. How it is done:
(§4) Inhibition of MAO Activity In Vivo: Chronic Treatment Experimental Protocol
(§5) Rats were treated with the test compounds (Table 5) at several dose levels by oral administration, one dose daily for 7-21 days, and decapitated 2 hours after the last dose. The activities of MAO-A and MAO-B were determined in the brain, liver and intestine as described in the previous example. Inhibition of MAO activity was calculated by dividing MAO activity in the treated rats by MAO activity in the control rats (saline treated, MAO activity in these rats was taken as 100%).
as §3

Assay [4] addresses T2, MAO-B. As to the kind of experiment: Inhibition of MAO activity in vivo, MAO-B. How it is done: as §4, §5, §3
Assay [5] addresses T1, MAO-A. As to the kind of experiment: Inhibition of MAO activity in vivo, MAO-A. Conditions: tissue not stated; for inhibition at 10 µmol/kg: 10 μmol/kg (3.2-4 mg/kg), acute.
The target in assay [6] is T2, MAO-B. The experiment in a line: Inhibition of MAO activity in vivo, MAO-B. Conditions: tissue not stated; for inhibition at 10 µmol/kg: 10 μmol/kg (3.2-4 mg/kg), acute.
The mark [7] stands for this setting: rat brain homogenate, 60 min pre-incubation at 37° C., 14C 5-HT substrate, read-out: In vitro IC50 A.
[8] abbreviates: rat brain homogenate, 60 min pre-incubation at 37° C., 14C PEA substrate, read-out: In vitro IC50 B.
The mark [9] stands for this setting: oral, 1 mg/kg (2.9 μmol/kg), 7 days, tissue not stated.
Where [10] appears, read: oral, 15 mg/kg (44 μmol/kg), 7 days, tissue not stated.
[11] abbreviates: oral, 150 μmol/kg, 7 days, tissue not stated.

The values that follow come from patent US20040010038A1, “Propargylamino indan derivatives and propargylamino tetralin derivatives as brain-selective MAO inhibitors” (priority 2002, published 2004).

Counter-ions that a name gives are not always drawn. Like-named read-outs stand apart in the source and are kept apart here.

By IC50 is commonly meant the concentration that gives 50% inhibition. `C#CCN(C)C1CCc2ccc(O)cc21` (racemic) [Cmpd 112, 3-(Methyl-Prop-2-Ynyl Amino)-5-Indanol]: the IC50 in assay [1] (setting [7]) is 0.03 µM; in assay [2] (setting [8]), 0.01 µM.
The matching figures for `C#CCN(C)C1CCc2c(O)cccc21` (racemic) [Cmpd 117, 1-(methyl-prop-2-ynylamino)-4-indanol]: 0.0083 µM and 0.07 µM.
Take `C#CCN(C)C1CCc2cccc(O)c21` (racemic) [Cmpd 118, 3-(methyl-prop-2-ynylamino)-4-indanol]: the IC50 in assay [1] (setting [7]) was 0.07 µM; in assay [2] it was 0.05 µM.
Take `C#CCN(C)C1CCc2c(OC(C)=O)cccc21` (racemic) [Cmpd 119]: the IC50 in assay [1] (setting [7]) amounted to 0.018 µM; in assay [2] (setting [8]), 0.11 µM.
The matching figures for `C#CCN(C)C1CCc2c(OC(=O)c3ccccc3)cccc21` (racemic) [Cmpd 120]: 0.13 µM and 0.91 µM.
On to `C#CCN(C)C1CCc2c(OC(=O)c3c(OC)cccc3OC)cccc21` (racemic) [Cmpd 121], for which the IC50 is 0.34 µM in assay [1] (setting [7]) and 3 µM in assay [2] (setting [8]).
Consider `C#CCN(C)C1CCc2ccc(O)cc2C1` (racemic) [Cmpd 123, 7-(methyl-prop-2-ynylamino)-2-tetralinol], for which the IC50 amounted to 0.41 µM in assay [1] (setting [7]) and 0.48 µM in assay [2] (setting [8]).
In the case of `C#CCN(C)C1CCc2ccc(OC(=O)c3ccccc3)cc2C1` (racemic) [Cmpd 124, 7-O-benzoyl-2-(methyl-prop-2-ynylamino)-tetralin Hcl], the IC50 in assay [1] (setting [7]) and in assay [2] (setting [8]) was 1.2 µM throughout.
`C#CCN(C)C1CCc2cc(OC(=O)c3ccccc3)c(OC(=O)c3ccccc3)cc21` (racemic) [Cmpd 137, 5,6-Di-O-Benzoyl-1-(Methyl-Prop-2-Ynyl-Amino)-Indan HCl]: the IC50 came to 1.4 µM in assay [1] (setting [7]) and 21 µM in assay [2] (setting [8]).
Take `C#CCN(C)C1CCc2cc(OC(=O)c3ccccc3)c(OC(=O)c3ccccc3)cc2C1` (racemic) [Cmpd 138, 6,7-di-O-benzoyl-2-(methyl-prop-2-ynylamino)-tetralin HCl]: the IC50 in assay [1] (setting [7]) was determined as 1.2 µM; in assay [2] (setting [8]), 0.4 µM.
One may read the inhibition as the drop in the measured response relative to a control, in per cent. `C#CCN[C@@H]1CCc2ccc(O)cc21` [Cmpd 101, (R)-3-prop-2-ynylamino-5-indanol mesylate]: in assay [3] (po, read-out: % inhibition A), the inhibition at 5 mg/kg was found to be 35% and the inhibition at 25 mg/kg was 57%. Besides, in assay [4] (po, read-out: % inhibition B), the inhibition at 5 mg/kg came out at 47% and the inhibition at 25 mg/kg stood at 65%.
With `C#CCN(C)[C@H]1CCc2ccc(O)cc21` [Cmpd 113, (S)3-(methyl-prop-2-ynylamino)-5-indanol], the IC50 worked out at 12 µM in assay [1] (setting [7]) and 23 µM in assay [2] (setting [8]).
Taken in the same sequence, the figures for `C#CCN(C)[C@@H]1CCc2ccc(O)cc21` [Cmpd 114, (R)3-(methyl-prop-2-ynylamino)-5-indanol] were 0.01 µM and 0.03 µM.
Taken in the same sequence, the figures for `C#CCN(C)[C@@H]1CCc2ccc(OC(C)=O)cc21` [Cmpd 116] were 0.035 µM and 0.0056 µM.
Taken in the same sequence, the figures for `C#CCN(C)[C@@H]1CCc2ccc(OC(=O)CCCC)cc21` [Cmpd 126] were 0.058 µM and 0.13 µM.
Turning to `C#CCN(C)[C@H]1CCc2ccc(OC(=O)c3ccccc3)cc21` [Cmpd 127, Benzoic Acid (S)-3-(Methyl-Prop-2-Ynyl-Amino)-Indan-5-Yl Ester HCl], the results for the IC50 in assay [1] (setting [7]) and in assay [2] (setting [8]) were 3.8 µM and 5.6 µM, respectively.
As for `C#CCN(C)[C@@H]1CCc2ccc(OC(=O)c3ccccc3)cc21` [Cmpd 128], the IC50 in assay [1] (setting [7]) amounted to 0.2 µM; in assay [2] (setting [8]), 1 µM. The inhibition at 1 mg/kg came to 87% in assay [3] (setting [9]) and 77% in assay [4] (setting [9]). The inhibition at 5 mg/kg in assay [3] (oral, 5 mg/kg (15 μmol/kg), 7 days, tissue not stated, read-out: % inhibition A) worked out at 95%; in assay [4] (oral, 5 mg/kg (15 μmol/kg), 7 days, tissue not stated, read-out: % inhibition B), 91%. For the same compound, the inhibition at 15 mg/kg came out at 98% in assay [3] (setting [10]) and 91% in assay [4] (setting [10]).
`C#CCN(C)[C@H]1CCc2ccc(OC(=O)C(C)(C)C)cc21` [Cmpd 129]: the IC50 in assay [1] (setting [7]) stood at 2.5 µM; in assay [2] (setting [8]), 17 µM.
Consider `C#CCN(C)[C@@H]1CCc2ccc(OC(=O)C(C)(C)C)cc21` [Cmpd 130], for which the inhibition at 10 µmol/kg in assay [5] was found to be 24%; in assay [6], 22%. For the same compound, the IC50 is 0.56 µM in assay [1] (setting [7]) and 2.5 µM in assay [2] (setting [8]).
Consider `C#CCN(C)[C@@H]1CCc2ccc(OC(=O)c3ccccc3C)cc21` [Cmpd 132], for which the inhibition at 10 µmol/kg in assay [5] came out at 41%; in assay [6], 37%. Besides, the IC50 in assay [1] (setting [7]) came to 1.1 µM; in assay [2] (setting [8]), 9.9 µM.
In the case of `C#CCN(C)[C@@H]1CCc2ccc(OC(=O)c3c(OC)cccc3OC)cc21` [Cmpd 134], the inhibition at 10 µmol/kg was 9% in assay [5] and 0% in assay [6]. Further, the IC50 in assay [1] (setting [7]) was 1.2 µM; in assay [2] (setting [8]), 5.9 µM.
`C#CCN(C)C1CCc2cc(O)c(O)cc2C1` (centres unmarked) [Cmpd 139, 6-(methyl-prop-2-ynylamino)-2,3-tetralindiol]: the figures for the IC50 in assay [1] (setting [7]) and in assay [2] (setting [8]) were 4.5 µM and 41 µM, respectively.
For `C#CCN(C)[C@@H]1CCc2ccc(OC(=O)N(C)CC)cc21` [Cmpd 140], half-maximal inhibition in assay [1] (IC50) was put at 4.3 µM. In assay [3] (po, read-out: % inhibition A), the inhibition at 2 µmol/kg is 6%, the inhibition at 10 µmol/kg came to 51% and the inhibition at 50 µmol/kg stood at 65%. Moreover, the IC50 in assay [2] (setting [8]) came to 12 µM. In addition, in assay [4] (po, read-out: % inhibition B), the inhibition at 2 µmol/kg stood at 10%, the inhibition at 10 µmol/kg is 30% and the inhibition at 50 µmol/kg stood at 73%.
`C#CCN(C)C1CCc2cccc(OC(=O)N(C)CC)c21` (centres unmarked) [Cmpd 141]: the figures for the half-maximal inhibitory concentration (IC50) in assay [1] (setting [7]) and in assay [2] (setting [8]) were 65 µM and 100 µM, respectively.
As to `C#CCN(C)C1CCc2c(OC(=O)N(C)CC)cccc21` (centres unmarked) [Cmpd 142], the IC50 in assay [1] (setting [7]) amounted to 0.027 µM; in assay [2] (setting [8]) it was 4 µM.
For the compound `C#CCN(C)C1CCc2ccc(OC(=O)N(C)CCC)cc21` (centres unmarked) [Cmpd 143], the IC50 in assay [1] (setting [7]) was determined as 5.6 µM; in assay [2] (setting [8]), 9.2 µM.
Taken in the same sequence, the figures for `C#CCN(C)C1CCc2cccc(OC(=O)N(C)CCC)c21` (centres unmarked) [Cmpd 144] were 71 µM and 63 µM.
On to `C#CCN[C@@H]1CCc2ccc(OC(=O)N(C)CC)cc21` [Cmpd 146], for which the inhibition at 100 µmol/kg in assay [5] (oral, 100 μmol/kg, 5 days) came to 56%; in assay [6] (oral, 100 μmol/kg, 5 days) it was 74%. The IC50 in assay [1] (read-out: In vitro IC50 A) worked out at 300 µM. For the same compound, the inhibition at 50 µmol/kg stood at 46% in assay [3] (oral, 50 μmol/kg, 7 days, tissue not stated, read-out: % inhibition A) and 52% in assay [4] (oral, 50 μmol/kg, 7 days, tissue not stated, read-out: % inhibition B). For the same compound, the inhibition at 150 µmol/kg in assay [3] (setting [11]) came to 74%; in assay [4] (setting [11]) it was 87%.
As for `C#CCN[C@@H]1CCc2ccc(OC(=O)N(C)CC)cc21` [Cmpd 147], the IC50 in assay [1] (setting [7]) is 550 µM; in assay [2] (setting [8]), above 1000 µM.
`C#CCNC1CCCc2ccc(OC(=O)N(C)CC)cc21` (centres unmarked) [Cmpd 148]: the IC50 in assay [1] (setting [7]) came to 500 µM; in assay [2] (setting [8]) it was 100 µM.
With `C#CCNC1CCc2ccc(OC(=O)N(C)CC)cc2C1` (centres unmarked) [Cmpd 149], the IC50 worked out at 2 µM in assay [1] (setting [7]) and 100 µM in assay [2] (setting [8]).
“(S)-3-prop-2-ynylamino-5-indanol mesylate [Cmpd 100]”: the IC50 in assay [1] (setting [7]) is 500 µM; in assay [2] (setting [8]), 300 µM.
